Values of other authors, collected in patent US20020076434A1, “Liposomal retinoid therapy in hormone refractory prostate cancer” (Aronex Pharmaceuticals, Inc., priority 2000, published 2002).

Columns and labels:
HRPC [1] = conditions: Kelly: 50 mg/m^2 every 8 hours for 8 weeks, 14 patients; Trump: days 1-14 every 22 days, 17 patients
HRPC [2] = test system: HRPC
[3] = one patient achieving CR, baseline PSA 25.0 ng/mL

For CC1=C(/C=C/C(C)=C/C=C/C(C)=C/C(=O)O)C(C)(C)CCC1 [oral ATRA, all trans retinoic acid], which Tumor response (HRPC [1]) is on record?
Its Tumor response is “little tumor response”.

And the “Number of biological responses” value (HRPC [2]; 26 HRPC patients, oral 45 mg/m^2 daily for 7 days, 7 days off, resumed Day 14)?
Its value is 4.

And the Maximum response duration (HRPC [2]; [3])?
The Maximum response duration was 3 month.

What about the “Time serum PSA remained within normal limits after the last dose” value (HRPC [2]; [3]) of the same molecule?
The value was 8 weeks.
